We go through twelve compounds from ChEMBL document CHEMBL3797121, “Novel nucleoside-based antimalarial compounds” (Bioorg Med Chem Lett, 2016).

The structures appear in SMILES notation.

The test system of one data set is Plasmodium falciparum. Description: Antimalarial activity against erythrocytic stage of Plasmodium falciparum K1 after 18 hrs by [3H]-hypoxanthine incorporation assay. In kind it is functional, organism-based.
Conditions: not given
Compound `C[C@H]1O[C@@H](n2cnc3c(N)nc(Cl)nc32)[C@H](O)[C@@H]1O` had an IC50 of 17.5 µM.

As to `CNc1ncnc2c1ncn2[C@@H]1O[C@H](C)[C@@H](O)[C@H]1O`, 9.01 µM corresponded to half-maximal inhibition (IC50).

In turn, `CNc1nc(C#N)nc2c1ncn2[C@@H]1O[C@H](C)[C@@H](O)[C@H]1O` had an IC50 of 31.2 µM.

In the case of `C[C@H]1O[C@@H](n2cnc3c(N)nc(NN)nc32)[C@H](O)[C@@H]1O`, the IC50 is 42 µM.

`C[C@H]1O[C@@H](n2cnc3c(N)nc(F)nc32)[C@H](O)[C@@H]1O` displayed an IC50 of 1 µM. Compared with the last compound, the IC50 is about 42-fold lower.

Take `C[C@H]1O[C@@H](n2cnc3c(N)nc(N=[N+]=[N-])nc32)[C@H](O)[C@@H]1O`: the midpoint of inhibition, the IC50, lay at 108 µM.

For `CNc1nc(I)nc2c1ncn2[C@@H]1O[C@H](C)[C@@H](O)[C@H]1O`, the 50% inhibitory concentration (IC50) worked out at 64.9 µM. Compared with the last compound, the IC50 is about 1.7-fold lower.

Turning to `C[C@H]1O[C@@H](n2cnc3c(N)nc(N)nc32)[C@H](O)[C@@H]1O`, the half-inhibitory concentration (IC50) was found to be 15.6 µM.

Consider `CNc1nc(F)nc2c1ncn2[C@@H]1O[C@H](C)[C@@H](O)[C@H]1O`, for which it took 11.5 µM to reach half-maximal inhibition (IC50).

For the compound `C[C@H]1O[C@@H](n2cnc3c(N)nc(I)nc32)[C@H](O)[C@@H]1O`, inhibition was half-maximal at 55.9 µM (IC50).

`C[C@H]1O[C@@H](n2cnc3c(N)nc(C#N)nc32)[C@H](O)[C@@H]1O` registered an IC50 of 33.5 µM.

The test system of another data set is L6. Description: Cytotoxicity against rat L6 cells. In kind it is cell-based.
Conditions: not given
Regarding `C[C@H]1O[C@@H](n2cnc3c(N)nc(Cl)nc32)[C@H](O)[C@@H]1O`, 147 µM corresponded to half-maximal inhibition (IC50).

In the case of `CNc1ncnc2c1ncn2[C@@H]1O[C@H](C)[C@@H](O)[C@H]1O`, the half-inhibitory concentration (IC50) worked out at 266 µM.

Compound `CNc1nc(C#N)nc2c1ncn2[C@@H]1O[C@H](C)[C@@H](O)[C@H]1O` showed an IC50 of 85 µM.

Turning to `C[C@H]1O[C@@H](n2cnc3c(N)nc(NN)nc32)[C@H](O)[C@@H]1O`, the concentration for half-maximal inhibition (IC50) is 188 µM.

Regarding `C[C@H]1O[C@@H](n2cnc3c(N)nc(F)nc32)[C@H](O)[C@@H]1O`, it took 2.1 µM to reach half-maximal inhibition (IC50).

The compound `C[C@H]1O[C@@H](n2cnc3c(N)nc(N=[N+]=[N-])nc32)[C@H](O)[C@@H]1O` gave an IC50 of 181 µM.

In turn, `CNc1nc(I)nc2c1ncn2[C@@H]1O[C@H](C)[C@@H](O)[C@H]1O` yielded an IC50 of 137 µM.

The compound `C[C@H]1O[C@@H](n2cnc3c(N)nc(N)nc32)[C@H](O)[C@@H]1O` displayed an IC50 of 338 µM.

Take `CNc1nc(F)nc2c1ncn2[C@@H]1O[C@H](C)[C@@H](O)[C@H]1O`: the half-maximal inhibitory concentration (IC50) was 236 µM.

The compound `C[C@H]1O[C@@H](n2cnc3c(N)nc(I)nc32)[C@H](O)[C@@H]1O` showed an IC50 of 110 µM. This IC50 is about 2.1-fold lower than that of the compound before.

Take `C[C@H]1O[C@@H](n2cnc3c(N)nc(C#N)nc32)[C@H](O)[C@@H]1O`: the IC50 came out at 177 µM.

Turning to `CCN(CC)CCCC(C)Nc1ccnc2cc(Cl)ccc12` (centres undefined) [CHLOROQUINE], half-maximal inhibition (IC50) required 120 µM.

System in a further data set: not listed separately
Description: Selectivity index, ratio of IC50 for rat L6 cells to IC50 for erythrocytic stage of Plasmodium falciparum K1. In kind it is toxicity, cell-based. The conditions noted are these: read-out: Ratio IC50.
Take `C[C@H]1O[C@@H](n2cnc3c(N)nc(Cl)nc32)[C@H](O)[C@@H]1O`: the selectivity ratio is 8.

`CNc1ncnc2c1ncn2[C@@H]1O[C@H](C)[C@@H](O)[C@H]1O`: the selectivity ratio is 30.

For the compound `CNc1nc(C#N)nc2c1ncn2[C@@H]1O[C@H](C)[C@@H](O)[C@H]1O`, the selectivity ratio came out at 3.

`C[C@H]1O[C@@H](n2cnc3c(N)nc(NN)nc32)[C@H](O)[C@@H]1O`: the selectivity ratio amounted to 4.

In the case of `C[C@H]1O[C@@H](n2cnc3c(N)nc(F)nc32)[C@H](O)[C@@H]1O`, the selectivity ratio came out at 2.

In the case of `C[C@H]1O[C@@H](n2cnc3c(N)nc(N=[N+]=[N-])nc32)[C@H](O)[C@@H]1O`, the selectivity ratio stood at 2.

For the compound `CNc1nc(I)nc2c1ncn2[C@@H]1O[C@H](C)[C@@H](O)[C@H]1O`, the selectivity ratio came out at 2.

For the compound `C[C@H]1O[C@@H](n2cnc3c(N)nc(N)nc32)[C@H](O)[C@@H]1O`, the selectivity ratio turned out to be 22.

For `CNc1nc(F)nc2c1ncn2[C@@H]1O[C@H](C)[C@@H](O)[C@H]1O`, the selectivity ratio worked out at 21.

Take `C[C@H]1O[C@@H](n2cnc3c(N)nc(I)nc32)[C@H](O)[C@@H]1O`: the selectivity ratio turned out to be 2.

Consider `C[C@H]1O[C@@H](n2cnc3c(N)nc(C#N)nc32)[C@H](O)[C@@H]1O`, for which the selectivity ratio amounted to 5.
